Data reported in patent US7319021B2, “Cell lysis composition, methods of use, apparatus and kit” (Promega Corporation, priority 2002, dated 2008).
Where “and” joins values, the source holds several entries; their conditions need not be identical. Equal entries are not always repeated.

Tests used:
E. coli cells [1] = assay: Release of Renilla Luciferase from E. coli (Example 2); type: cell-based
Experimental: E. coli bacteria expressing His-tagged Renilla Luciferase were grown in Luria Broth [L Broth]+10 ng/ml tetracycline [Tet] [50 ml of media in a 250 ml flask] at 37° C. overnight in a shaking incubator rotating at 200 RPM. The E. coli strain was prepared by transforming E. coli with a vector expressing histidine-tagged Renilla luciferase. The vector was constructed by conventional methods. See Maniatis et al., “Molecular Cloning: A Laboratory Manual,” 2nd Edition, Cold Spring Harbor Laboratory, Cold Spring Harbor, N.Y. (1982). Following overnight culture the bacterial cells were diluted 1:100 into fresh L broth+Tet and grown to a density of 0.6 at 600 nm [OD 600 0.6] at 37C on the shaking incubator. Renilla expression was induced by addition of isopropyl-beta-D-thiogalactopyranoside (IPTG) from a 1M filter sterilized solution to a final concentration of 1 mM. The culture was grown for 4 additional hours at 37C on the shaking incubator before use.
One ml of the Renilla luciferase expressing E. coli culture was added to each of 12 tubes, labeled 1 through 12: tubes 1-3, no further addition; tubes 4-6, 10 ul of 10 mg/ml lysozyme; tubes […], 100 ul of CLR formulation A, and; tubes 10-12, 100 ul of CLR formulation A and 10 ul of 10 mg/ml lysozyme. […]

E. coli cells [2] = assay: Optical density and visual turbidity of E. coli culture after treatment (Example 2); type: cell-based
Experimental: E. coli bacteria expressing His-tagged Renilla Luciferase were grown in Luria Broth [L Broth]+10 ng/ml tetracycline [Tet] [50 ml of media in a 250 ml flask] at 37° C. overnight in a shaking incubator rotating at 200 RPM. The E. coli strain was prepared by transforming E. coli with a vector expressing histidine-tagged Renilla luciferase. The vector was constructed by conventional methods. See Maniatis et al., “Molecular Cloning: A Laboratory Manual,” 2nd Edition, Cold Spring Harbor Laboratory, Cold Spring Harbor, N.Y. (1982). Following overnight culture the bacterial cells were diluted 1:100 into fresh L broth+Tet and grown to a density of 0.6 at 600 nm [OD 600 0.6] at 37C on the shaking incubator. Renilla expression was induced by addition of isopropyl-beta-D-thiogalactopyranoside (IPTG) from a 1M filter sterilized solution to a final concentration of 1 mM. The culture was grown for 4 additional hours at 37C on the shaking incubator before use. […]
900 ul of 20 mM Tris-HCl pH 7.3 and 100 ul of the corresponding solutions were added to each of 12 disposable plastic cuvettes. After the instrument background was set to zero with a 20 mM Tris-HCl pH 7.3 solution at an optical density of 600 nm (OD600), and the optical density of the solutions was measured.

lysozyme: 10 mg/ml solution of lysozyme [Sigma L 6876] in 20 mM Tris-HCl buffer, pH 7.3; 10 ul per ml culture
Relative Light Units Resuspended Pellet Sample (E. coli cells [1]; 2 ul of pellet resuspended in 800 ul): 58.41 Relative Light Units and 60.99 Relative Light Units and 72.03 Relative Light Units
Relative light Units, Supernatant Sample (E. coli cells [1]; 2 ul of supernatant): 0.053 Relative light Units and 0.074 Relative light Units and 0.048 Relative light Units
OD600 (E. coli cells [2]; 100 ul of treated culture in 900 ul 20 mM Tris-HCl pH 7.3, culture expressing His-tagged Renilla Luciferase): 0.3264 and 0.3261 and 0.3033
level of turbidity, visual inspection (E. coli cells [2]; tubes inverted 10 times): very turbid
